Here are results for four compounds from patent US11185531B2, “Arginine methyltransferase inhibitors and uses thereof” (Epizyme, Inc., priority 2013, dated 2021).

One assay deals with T1, human PRMT6 (Homo sapiens, UniProt Q96LA8).
T1 construct: Flag-PRMT6-His was eluted with 200 ug/ml FLAG peptide in the same buffer; made in house; host or cells: HEK 293F cells (BacMam baculovirus, pFastBacMam)
As to the kind of experiment: PRMT6 Biochemical Assay (3H-SAM Flashplate, peptide substrate). Conditions: 30 min preincubation. The source says: Peptide representative of human histone H4 residues 36-50 was synthesized with an N-terminal linker-affinity tag motif and a C-terminal amide cap by 21st Century Biochemicals. The peptide was purified by high-performance liquid chromatography (HPLC) to greater than 95% purity and confirmed by liquid chromatography mass spectrometry (LC-MS). The sequence was Biot-Ahx-[…]-amide and contained a monomethylated lysine at position 44 (SEQ ID NO:5).
Full-length human PRMT6 (NM_018137.2) transcript clone was amplified from an HEK 293 cDNA library, incorporating a flanking 5′ sequence encoding a FLAG tag ([…]) (SEQ ID NO:6) fused directly to Ser 2 of PRMT6 and a 3′ sequence encoding a hexa His sequence (HHHHHH) fused directly to Asp 375. The amplified gene was subcloned into pFastBacMam (Viva Biotech).
Column was washed with 20 mM imidazole in the same buffer and Flag-PRMT6-His was eluted with 150 mM imidazole. Pooled fractions were dialysed against buffer Ni-A and further purified by anti-flag M2 affinity chromatography. Flag-PRMT6-His was eluted with 200 ug/ml FLAG peptide in the same buffer. Pooled fractions were dialysed in 20 mM Tris, 150 mM NaCl, 10% glycerol and 5 mM 3-mercaptoethanol, pH 7.8. The purity of recovered protein was 95%.
General Procedure for PRMT6 Enzyme Assays on Peptide Substrates.
The assays were all performed in a buffer consisting of 20 mM Bicine (pH=7.6), 1 mM TCEP, 0.005% BSG, and 0.002% Tween 20, prepared on the day of use. Compounds in 100% DMSO (1 ul) were spotted into a polypropylene 384-well V-bottom plates (Greiner) using a Platemate Plus outfitted with a 384-channel head (Thermo Scientific). DMSO (1 ul) was added to Columns 11, 12, 23, 24, rows A-H for the maximum signal control and 1 ul of SAH, a known product and inhibitor of PRMT6, was added to columns 11, 12, 23, 24, rows I-P for the minimum signal control. A cocktail (40 ul) containing the PRMT6 enzyme was added by Multidrop Combi (Thermo-Fisher). The compounds were allowed to incubate with PRMT6 for 30 min at room temperature, then a cocktail (10 ul) containing SAM and peptide was added to initiate the reaction (final volume=51 ul). The final concentrations of the components were as follows: PRMT6 was 1 nM, ^3H-SAM was 200 nM, non-radiolabeled SAM was 250 nM, peptide was 75 nM, SAH in the minimum signal control wells was 1 mM, and the DMSO concentration was 2%. The assays were stopped by the addition of non-radiolabeled SAM (10 ul) to a final concentration of 400 uM, which dilutes the ^3H-SAM to a level where its incorporation into the peptide substrate is no longer detectable. 50 ul of the reaction in the 384-well polypropylene plate was then transferred to a 384-well Flashplate and the biotinylated peptides were allowed to bind to the streptavidin surface for at least 1 hour before being washed once with 0.1% Tween20 in a Biotek ELx405 plate washer. The plates were then read in a PerkinElmer TopCount plate reader to measure the quantity of ^3H-labeled peptide bound to the Flashplate surface, measured as disintegrations per minute (dpm) or alternatively, referred to as counts per minute (cpm).
(§1) Where dpm=disintegrations per minute, cmpd=signal in assay well, and min and max are the respective minimum and maximum signal controls.
(§2) Where top and bottom are the normally allowed to float, but may be fixed at 100 or 0 respectively in a 3-parameter fit. The Hill Coefficient normally allowed to float but may also be fixed at 1 in a 3-parameter fit. Y is the % inhibition and X is the compound concentration.

The target of the next assay is T2, human PRMT1 (Homo sapiens, UniProt Q99873).
T2 construct: GST-tagged PRMT1; made in house; host or cells: High Five insect cells (baculovirus)
T2 sequence (Q99873 with tags, fused parts or gaps): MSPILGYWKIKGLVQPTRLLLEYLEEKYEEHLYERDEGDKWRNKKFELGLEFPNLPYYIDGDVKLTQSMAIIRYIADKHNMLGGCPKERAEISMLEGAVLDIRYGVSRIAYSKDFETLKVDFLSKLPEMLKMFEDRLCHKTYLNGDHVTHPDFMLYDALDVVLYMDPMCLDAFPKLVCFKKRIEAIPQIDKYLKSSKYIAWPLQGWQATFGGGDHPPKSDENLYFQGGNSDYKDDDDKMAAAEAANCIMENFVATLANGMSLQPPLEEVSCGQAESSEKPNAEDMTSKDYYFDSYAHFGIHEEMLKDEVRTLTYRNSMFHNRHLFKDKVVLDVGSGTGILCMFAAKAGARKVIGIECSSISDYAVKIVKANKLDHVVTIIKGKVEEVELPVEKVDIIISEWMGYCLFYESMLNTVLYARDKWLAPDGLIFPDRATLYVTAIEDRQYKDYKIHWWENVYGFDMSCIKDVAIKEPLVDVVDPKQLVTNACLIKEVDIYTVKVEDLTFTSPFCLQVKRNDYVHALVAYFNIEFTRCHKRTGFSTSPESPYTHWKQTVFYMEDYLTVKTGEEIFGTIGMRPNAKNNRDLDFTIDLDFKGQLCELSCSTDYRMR
As to the kind of experiment: PRMT1 Biochemical Assay (3H-SAM Flashplate, peptide substrate). Conditions: 30 min preincubation.
From the text: Peptide representative of human histone H4 residues 36-50 was synthesized with an N-terminal linker-affinity tag motif and a C-terminal amide cap by 21st Century Biochemicals. The peptide was purified by high-performance liquid chromatography (HPLC) to greater than 95% purity and confirmed by liquid chromatography mass spectrometry (LC-MS). The sequence was Biot-Ahx-[…]-amide (SEQ ID NO.: 1).
Full-length human PRMT1 isoform 1 (NM_001536.5) transcript clone was amplified from an HEK 293 cDNA library, incorporating flanking 5′ sequence encoding a FLAG tag ([…]) (SEQ ID NO:2) fused directly to Met 1 of PRMT1. The amplified gene was subcloned into pFastBacI (Life Technologies) modified to encode an N-terminal GST tag and a TEV cleavage sequence
GST-tagged PRMT1 was eluted with 50 mM Tris, 2 mM glutathione, pH 7.8, dialysed in buffer A and concentrated to 1 mg/mL. The purity of recovered protein was 73%. Reference: Wasilko, D. J. and S. E. Lee: “TIPS: titerless infected-cells preservation and scale-up” Bioprocess J., 5 (2006), pp. 29-32.
General Procedure for PRMT1 Enzyme Assays on Peptide Substrates.
The assays were all performed in a buffer consisting of 20 mM Bicine (pH=7.6), 1 mM TCEP, 0.005% BSG, and 0.002% Tween 20, prepared on the day of use. Compounds in 100% DMSO (1 ul) were spotted into a polypropylene 384-well V-bottom plates (Greiner) using a Platemate Plus outfitted with a 384-channel head (Thermo Scientific). DMSO (1 ul) was added to Columns 11, 12, 23, 24, rows A-H for the maximum signal control and 1 ul of SAH, a known product and inhibitor of PRMT1, was added to columns 11, 12, 23, 24, rows I-P for the minimum signal control. A cocktail (40 ul) containing the PRMT1 enzyme was added by Multidrop Combi (Thermo-Fisher). The compounds were allowed to incubate with PRMT1 for 30 min at room temperature, then a cocktail (10 ul) containing SAM and peptide was added to initiate the reaction (final volume=51 ul). The final concentrations of the components were as follows: PRMT1 was 0.5 nM, ^3H-SAM was 200 nM, non-radiolabeled SAM was 1.5 uM, peptide was 20 nM, SAH in the minimum signal control wells was 1 mM, and the DMSO concentration was 2%. The assays were stopped by the addition of non-radiolabeled SAM (10 ul) to a final concentration of 300 uM, which dilutes the ^3H-SAM to a level where its incorporation into the peptide substrate is no longer detectable. 50 ul of the reaction in the 384-well polypropylene plate was then transferred to a 384-well Flashplate and the biotinylated peptides were allowed to bind to the streptavidin surface for at least 1 hour before being washed once with 0.1% Tween20 in a Biotek ELx405 plate washer. The plates were then read in a PerkinElmer TopCount plate reader to measure the quantity of ^3H-labeled peptide bound to the Flashplate surface, measured as disintegrations per minute (dpm) or alternatively, referred to as counts per minute (cpm).
as §1, §2

The subject of assay [1] is mono-methyl arginine in RKO cells. Description: RKO Methylation Assay, In Cell Western for mono-methyl arginine. It counts as cell-based. Conditions: Homo sapiens, 72 hours, percent activation of mono-methyl arginine signal. An excerpt:
RKO adherent cells were purchased from ATCC (American Type Culture Collection), Manassas, Va., USA. DMEM/Glutamax medium, penicillin-streptomycin, heat inactivated fetal bovine serum, 0.05% trypsin and D-PBS were purchased from Life Technologies, Grand Island, N.Y., USA. Odyssey blocking buffer, 800 CW goat anti-rabbit IgG (H+L) antibody, and Licor Odyssey infrared scanner were purchased from Licor Biosciences, Lincoln, Nebr., USA. Mono-methyl arginine antibody was purchased from Cell Signaling Technology, Danvers, Mass., USA. Methanol was purchased from VWR, Franklin, Mass., USA. 10% Tween 20 was purchased from KPL, Inc., Gaithersburg, Md., USA. DRAQ5 was purchased from Biostatus Limited, Leicestershire, UK.
RKO adherent cells were maintained in growth medium (DMEM/Glutamax medium supplemented with 10% v/v heat inactivated fetal bovine serum and 100 units/mL penicillin-streptomycin) and cultured at 37° C. under 5% CO2.
Cell Treatment, in Cell Western (ICW) for Detection of Mono-Methyl Arginine and DNA Content.
RKO cells were seeded in assay medium at a concentration of 20,000 cells per mL to a poly-D-lysine coated 384 well culture plate (BD Biosciences 356697) with 50 μL per well. Compound (100 nL) from a 96-well source plate was added directly to 384 well cell plate. Plates were incubated at 37° C., 5% CO2 for 72 hours. After three days of incubation, plates were brought to room temperature outside of the incubator for ten minutes and blotted on paper towels to remove cell media. 50 μL of ice cold 100% methanol was added directly to each well and incubated for 30 min at room temperature. After 30 min, plates were transferred to a Biotek EL406 plate washer and washed 2 times with 100 μL per well of wash buffer (IX PBS). Next 60 μL per well of Odyssey blocking buffer (Odyssey Buffer with 0.1% Tween 20 (v/v)) were added to each plate and incubated 1 hour at room temperature. Blocking buffer was removed and 20 μL per well of primary antibody was added (mono-methyl arginine diluted 1:200 in Odyssey buffer with 0.1% Tween 20 (v/v)) and plates were incubated overnight (16 hours) at 4° C. Plates were washed 5 times with 100 μL per well of wash buffer. Next 20 μL per well of secondary antibody was added (1:200 800 CW goat anti-rabbit IgG (H+L) antibody, 1:1000 DRAQ5 (Biostatus limited) in Odyssey buffer with 0.1% Tween 20 (v/v)) and incubated for 1 hour at room temperature. The plates were washed 5 times with 100 μL per well wash buffer then 2 times with 100 μL per well of water. Plates were allowed to dry at room temperature then imaged on the Licor Odyssey machine which measures integrated intensity at 700 nm and 800 nm wavelengths. Both 700 and 800 channels were scanned.
First, the ratio for each well was determined by:
Each plate included fourteen control wells of DMSO only treatment (minimum activation) as well as fourteen control wells for maximum activation treated with 20 μM of a reference compound. The average of the ratio values for each control type was calculated and used to determine the percent activation for each test well in the plate. Reference compound was serially diluted three-fold in DMSO for a total of nine test concentrations, beginning at 20 μM. Percent activation was determined and EC30 curves were generated using triplicate wells per concentration of compound.

The target of a further assay is T3, human PRMT8 (Homo sapiens, UniProt Q9NR22).
T3 construct: Full-length human PRMT8 (NM_019854.4) isoform 1 transcript clone; GST (N, cleaved yes); made in house; host or cells: E. coli BL21(DE3) Gold
T3 sequence (Q9NR22 whole entry, canonical isoform): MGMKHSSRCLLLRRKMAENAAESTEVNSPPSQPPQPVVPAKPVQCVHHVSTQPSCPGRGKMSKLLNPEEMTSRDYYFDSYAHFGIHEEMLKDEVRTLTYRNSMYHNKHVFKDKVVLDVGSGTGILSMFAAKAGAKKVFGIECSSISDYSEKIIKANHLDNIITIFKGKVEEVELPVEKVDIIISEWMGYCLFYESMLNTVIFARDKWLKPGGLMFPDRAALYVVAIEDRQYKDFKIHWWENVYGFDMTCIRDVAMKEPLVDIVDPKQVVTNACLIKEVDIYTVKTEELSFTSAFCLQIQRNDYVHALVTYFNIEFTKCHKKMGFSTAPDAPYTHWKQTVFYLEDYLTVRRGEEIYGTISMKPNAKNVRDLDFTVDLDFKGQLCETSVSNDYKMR
As to the kind of experiment: PRMT8 Biochemical Assay (3H-SAM Flashplate, peptide substrate). Conditions: 30 min preincubation.
From the text: Peptide representative of human histone H4 residues 31-45 was synthesized with an N-terminal linker-affinity tag motif and a C-terminal amide cap by 21st Century Biochemicals. The peptide was purified by high-performance liquid chromatography (HPLC) to greater than 95% purity and confirmed by liquid chromatography mass spectrometry (LC-MS). The sequence was Biot-Ahx-[…]-amide (SEQ ID NO:8).
The resulting construct encodes an N-terminal GST tag and a thrombin cleavage sequence
GST-tagged PRMT8 was eluted with 50 mM Tris, 2 mM glutathione, pH 7.8. Pooled fractions were cleaved by thrombin (10 U) and dialysed in buffer A. GST was removed by reloading the cleaved protein sample onto glutathione sepharose column and PRMT8 was collected in the flow-through fractions. PRMT8 was purified further by ceramic hydroxyapatite chromatography. The column was washed with 50 mM phosphate buffer, 100 mM NaCl, 5% glycerol, 5 mM 3-mercaptoethanol, pH 7.8 and PRMT8 was eluted by 100 mM phosphate in the same buffer. Protein was concentrated and buffer was exchanged to 50 mM Tris, 300 mM NaCl, 10% glycerol, 5 mM β-mercaptoethanol, pH 7.8 by ultrafiltration. The purity of recovered protein was 89%.
General Procedure for PRMT8 Enzyme Assays on Peptide Substrates.
The assays were all performed in a buffer consisting of 20 mM Bicine (pH=7.6), 1 mM TCEP, 0.005% BSG, and 0.002% Tween 20, prepared on the day of use. Compounds in 100% DMSO (1 ul) were spotted into a polypropylene 384-well V-bottom plates (Greiner) using a Platemate Plus outfitted with a 384-channel head (Thermo Scientific). DMSO (1 ul) was added to Columns 11, 12, 23, 24, rows A-H for the maximum signal control and 1 ul of SAH, a known product and inhibitor of PRMT8, was added to columns 11, 12, 23, 24, rows I-P for the minimum signal control. A cocktail (40 ul) containing the PRMT8 enzyme was added by Multidrop Combi (Thermo-Fisher). The compounds were allowed to incubate with PRMT8 for 30 min at room temperature, then a cocktail (10 ul) containing ^3H-SAM and peptide was added to initiate the reaction (final volume=51 ul). The final concentrations of the components were as follows: PRMT8 was 1.5 nM, ^3H-SAM was 50 nM, non-radiolabeled SAM was 550 nM, peptide was 150 nM, SAH in the minimum signal control wells was 1 mM, and the DMSO concentration was 2%. The assays were stopped by the addition of non-radiolabeled SAM (10 ul) to a final concentration of 400 uM, which dilutes the ^3H-SAM to a level where its incorporation into the peptide substrate is no longer detectable. 50 ul of the reaction in the 384-well polypropylene plate was then transferred to a 384-well Flashplate and the biotinylated peptides were allowed to bind to the streptavidin surface for at least 1 hour before being washed once with 0.1% Tween20 in a Biotek ELx405 plate washer. The plates were then read in a PerkinElmer TopCount plate reader to measure the quantity of ^3H-labeled peptide bound to the Flashplate surface, measured as disintegrations per minute (dpm) or alternatively, referred to as counts per minute (cpm).
as §1, §2

SMILES strings stand for the structures.

T1 sequence (Q96LA8 with tags, fused parts or gaps): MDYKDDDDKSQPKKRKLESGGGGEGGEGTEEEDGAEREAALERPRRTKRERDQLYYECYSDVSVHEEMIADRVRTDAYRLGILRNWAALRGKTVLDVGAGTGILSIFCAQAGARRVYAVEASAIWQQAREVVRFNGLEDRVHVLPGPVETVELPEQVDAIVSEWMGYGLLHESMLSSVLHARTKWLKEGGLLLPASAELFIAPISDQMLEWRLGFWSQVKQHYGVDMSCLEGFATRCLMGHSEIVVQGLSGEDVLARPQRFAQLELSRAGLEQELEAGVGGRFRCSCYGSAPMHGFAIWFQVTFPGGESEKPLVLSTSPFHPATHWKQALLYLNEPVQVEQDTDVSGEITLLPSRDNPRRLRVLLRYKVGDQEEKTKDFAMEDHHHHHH

In the case of `CN(CCN)Cc1c[nH]nc1C1CC1` [Compound 12], the IC50 against human PRMT6 and on human PRMT1 was 1010 to 3000 nM throughout.
As to `CN(CCN)Cc1c[nH]nc1C(C)(C)C` [Compound 27], the IC50 (as a rule, the concentration at which inhibition is half-maximal) on human PRMT6 lay in the range of 1010 to 3000 nM. For the same compound, the EC30 (usually the point of the concentration-response curve where the effect stands at 30%) in assay [1] is more than 12000 nM.
`CNCCN(C)Cc1c[nH]nc1C1CCN(C(=O)CC(C)C)CC1` [Compound 40, 3-methyl-1-(4-(4-((methyl(2-(methylamino)ethyl)amino)methyl)-1H-pyrazol-3-yl)piperidin-1-yl)butan-1-one]: the IC50 against human PRMT6 was less than 100 nM; at human PRMT8, 101 to 1000 nM.
On human PRMT6, `CN(CCN)Cc1c[nH]nc1C1CCC(N2CCOCC2)CC1` (centres unmarked) [Compound 43, N^1-methyl-N^1-((3-(4-morpholinocyclohexyl)-1H-pyrazol-4-yl)methyl)ethane-1,2-diamine] came in with an IC50 of less than 100 nM. Further, the EC30 in assay [1] is less than 3000 nM.
